Assay results from patent US8426587B2, “Haloallylamine inhibitors of SSAO/VAP-1 and uses therefor” (Pharmaxis Ltd., priority 2007, dated 2013).
Counter-ions that a name gives are not always drawn.

These compounds were tested against T1, Human MAO-B (Homo sapiens, UniProt P27338) (assay: Inhibition of recombinant MAO-B (Amplex Red)). Settings: 30 min at 37° C. preincubation, 50 μM benzylamine.
T1 sequence (P27338 1-520): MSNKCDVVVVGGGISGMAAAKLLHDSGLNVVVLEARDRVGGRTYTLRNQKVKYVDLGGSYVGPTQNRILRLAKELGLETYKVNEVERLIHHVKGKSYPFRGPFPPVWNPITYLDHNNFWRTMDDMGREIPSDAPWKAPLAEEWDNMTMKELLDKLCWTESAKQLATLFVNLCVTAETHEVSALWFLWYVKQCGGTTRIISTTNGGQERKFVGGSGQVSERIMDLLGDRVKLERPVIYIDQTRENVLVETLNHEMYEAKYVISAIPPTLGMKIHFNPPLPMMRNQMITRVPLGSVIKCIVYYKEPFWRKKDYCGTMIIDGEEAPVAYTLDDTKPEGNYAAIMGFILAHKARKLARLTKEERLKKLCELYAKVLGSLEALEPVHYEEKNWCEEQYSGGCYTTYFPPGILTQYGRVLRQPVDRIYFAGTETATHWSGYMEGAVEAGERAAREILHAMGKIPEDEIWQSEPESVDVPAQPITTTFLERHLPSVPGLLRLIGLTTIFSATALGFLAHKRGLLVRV
Format: biochemical
Description: Recombinant MAO-B was incubated in 0.1 M sodium phosphate buffer pH 7.4 with varying concentration of test compounds for 30 min at 37° C. The homogenate/protein was then incubated at 37° C. with […] Amplex® Red, 0.75 U/ml HRP and 40 μM benzylamine (mouse SSAO), 300 μM benzylamine (human SSAO), 100 μM tyramine (MAO-A) or 50 μM benzylamine (MAO-B) and the formation of resorufin was measured (excitation range 530-560 nm and emission at 590 nm) every 5 min in either a Tecan Infinite 200 or a BMG Fluorostar Optima platereader. IC50 were estimated using Graphpad Prism software.
An IC50 of under 1000 nM was found for `NC/C=C(/F)COc1ccc(Cl)cc1Cl` [(E)-4-(2,4-Dichlorophenoxy)-3-fluorobut-2-en-1-amine hydrochloride] in this work. An IC50 of under 1000 nM was found for `NC/C=C(/F)COc1ccccc1` [(E)-3-fluoro-4-phenoxybut-2-en-1-amine hydrochloride] in this work. An IC50 of under 10000 nM was found for `NC/C=C(/F)COc1ccc(S(=O)(=O)N2CCOCC2)cc1` [(E)-3-Fluoro-4-(4-(morpholinosulfonyl)phenoxy)but-2-en-1-amine hydrochloride] in this work. An IC50 of under 1000 nM was found for `NC/C=C(/F)COc1cccc(C(F)(F)F)c1` [(E)-3-Fluoro-4-(3-(trifluoromethyl)phenoxy)but-2-en-1-amine hydrochloride] in this work. An IC50 of under 1000 nM was found for `NC/C=C(/F)COc1ccc(C(=O)NCc2ccccc2)cc1` [(E)-4-(4-Amino-2-fluorobut-2-enyloxy)-N-benzylbenzamide hydrochloride] in this work.

What follows are compounds tested against T2, Mouse SSAO/VAP-1 (Mus musculus, UniProt O70423) (assay: Inhibition of amine oxidase activity of mouse SSAO/VAP-1 (3T3-L1 adipocytes, Amplex Red)). Settings: 3T3-L1 adipocyte SSAO, 30 min at 37° C. preincubation, 40 μM benzylamine.
T2 construct: Adipocytes were used as an SSAO source either as adherent cells or as a homogenate; endogenous in cells; host or cells: 3T3-L1 murine fibroblasts (ATCC) differentiated into adipocytes
T2 sequence (O70423 1-765): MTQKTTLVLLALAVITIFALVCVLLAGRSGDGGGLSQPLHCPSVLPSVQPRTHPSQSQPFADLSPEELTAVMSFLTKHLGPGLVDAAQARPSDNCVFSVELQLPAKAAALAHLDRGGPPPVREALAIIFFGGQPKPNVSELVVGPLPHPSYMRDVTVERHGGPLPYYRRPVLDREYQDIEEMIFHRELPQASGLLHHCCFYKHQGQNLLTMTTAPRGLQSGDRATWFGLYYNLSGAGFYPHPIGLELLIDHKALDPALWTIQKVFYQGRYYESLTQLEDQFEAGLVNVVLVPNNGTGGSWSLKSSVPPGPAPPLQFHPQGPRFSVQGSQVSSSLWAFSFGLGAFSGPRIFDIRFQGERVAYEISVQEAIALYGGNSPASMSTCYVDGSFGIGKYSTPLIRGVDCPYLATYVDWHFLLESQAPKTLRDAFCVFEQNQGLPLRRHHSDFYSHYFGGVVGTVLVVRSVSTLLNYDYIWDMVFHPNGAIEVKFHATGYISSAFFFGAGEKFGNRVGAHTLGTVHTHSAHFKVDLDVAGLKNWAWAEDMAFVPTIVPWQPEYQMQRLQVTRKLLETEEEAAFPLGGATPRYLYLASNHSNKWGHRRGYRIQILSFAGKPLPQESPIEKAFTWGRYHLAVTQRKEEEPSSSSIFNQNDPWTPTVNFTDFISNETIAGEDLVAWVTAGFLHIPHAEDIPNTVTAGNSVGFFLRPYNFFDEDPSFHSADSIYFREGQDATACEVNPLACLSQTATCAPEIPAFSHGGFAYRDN
Format: biochemical
Source text: 3T3-L1 Murine fibroblasts were purchased from the American Type Culture Collection (ATCC, Rockville, Md.). Dulbecco's Modified Eagle Medium (DMEM) and fetal calf serum (FCS), antibiotics and Amplex® Red were obtained from Invitrogen (Carlsbad, Calif.). Tissue culture plastics and black clear-bottom 96 well plates were from BD Falcon (Bedford, Mass.). Bicinchoninic acid (BCA) reagent was from Pierce (Rockford, Ill.). All other materials were obtained from Sigma (St. Louis, Mo.).
3T3-L1 Fibroblasts were cultured in DMEM supplemented with 10% heat-inactivated FCS, 2 mM L-glutamine, 100 U/L penicillin and 100 μg/L streptomycin at 37° C. in 5% CO2. For differentiation into adipocytes, fibroblasts were cultured in DMEM with FCS for 1 or 2 days postconfluence, after which the cells were cultured for 3 days in DMEM containing 10% FCS, 350 nM insulin, 0.5 mM 3-isobutyl-1-methylxanthine, 250 nM dexamethasone, and 400 nM biotin and for 3 days in DMEM containing 10% FCS and 350 nM insulin. After differentiation, adipocytes were maintained in DMEM supplemented with 10% FCS. Adipocytes were used for experiments 8 to 11 days after the onset of differentiation, and the medium was renewed 2 or 3 days prior to each experiment. For culturing in black clear-bottom 96-well plates, cells were seeded at a 1:1 cell surface ratio, and differentiation was initiated 4 days postseeding. Cells were used between days 6-12 post-differentiation and between passages 7 and 20. Adipocytes were used as an SSAO source either as adherent cells or as a homogenate.
To prepare homogenate, 10 cm dishes of adipocytes were washed with HES buffer (20 mM HEPES, 1 mM EDTA, 250 mM sucrose, pH 7.4) and scraped in HES buffer containing 10 μg/mL leupeptin, 10 μM pepstatin and 1 mM PMSF. Cells were lysed by passage through a 23 G needle followed by passage through a 27 G needle. The lysate was spun at 500 g for 5 min and fat was removed. Protein concentration of the supernatant was measured using a BCA assay according to the manufacturer's instructions. The homogenate was stored at −80° C. until needed.
(§1) To measure the SSAO activity, adipocyte homogenate (0.5 mg/mL) or adipocytes (adhering cells) containing 0.5 mM pargyline, or purified human SSAO was incubated in 0.1 M sodium phosphate buffer pH 7.4 with varying concentrations of test compounds for 30 min at 37° C. The homogenate was then incubated at 37° C. with 60 μM Amplex® Red, 0.75 U/mL HRP and 40 μM benzylamine (mouse SSAO) or 300 μM benzylamine (human SSAO) and the formation of resorufin was measured (excitation range 530-560 nm and emission at 590 nm) every 10 min in either a Tecan Infinite 200 or a BMG plate reader. The IC50 values were estimated using Graphpad Prism software. The IC50 is an estimation of the concentration of the test compound to inhibit the amine oxidase activity of SSAO/VAP-1 by 50%. The IC50 values of certain invention compounds are included in Table 1.
An IC50 of under 1000 nM was found for `NC/C=C(\Cl)Cc1cc(F)cc(F)c1` [(Z)-3-Chloro-4-(3,5-difluorophenyl)but-2-en-1-amine hydrochloride, reference compound] in this work. An IC50 of under 10000 nM was found for `NC/C=C(\Cl)CCc1ccccc1` [(Z)-3-Chloro-5-phenylpent-2-en-1-amine hydrochloride, reference compound] in this work. An IC50 of under 10000 nM was found for `NC/C=C(/F)COc1ccc(Cl)cc1Cl` [(E)-4-(2,4-Dichlorophenoxy)-3-fluorobut-2-en-1-amine hydrochloride] in this work. An IC50 of under 10000 nM was found for `NC/C=C(/F)COc1ccccc1` [(E)-3-fluoro-4-phenoxybut-2-en-1-amine hydrochloride] in this work. An IC50 of under 10000 nM was found for `NC/C=C(/F)COc1ccc(S(=O)(=O)N2CCOCC2)cc1` [(E)-3-Fluoro-4-(4-(morpholinosulfonyl)phenoxy)but-2-en-1-amine hydrochloride] in this work. An IC50 of under 100000 nM was found for `NC/C=C(/F)COc1cccc(C(F)(F)F)c1` [(E)-3-Fluoro-4-(3-(trifluoromethyl)phenoxy)but-2-en-1-amine hydrochloride] in this work. An IC50 of under 1000 nM was found for `NC/C=C(/F)COc1ccc(C(=O)NCc2ccccc2)cc1` [(E)-4-(4-Amino-2-fluorobut-2-enyloxy)-N-benzylbenzamide hydrochloride] in this work.

What follows are compounds tested against T3, Human SSAO/VAP-1 (Homo sapiens, UniProt Q16853) (assay: Inhibition of amine oxidase activity of purified human SSAO/VAP-1 (Amplex Red)). Settings: purified human SSAO, 30 min at 37° C. preincubation, 300 μM benzylamine.
T3 sequence (Q16853 1-763): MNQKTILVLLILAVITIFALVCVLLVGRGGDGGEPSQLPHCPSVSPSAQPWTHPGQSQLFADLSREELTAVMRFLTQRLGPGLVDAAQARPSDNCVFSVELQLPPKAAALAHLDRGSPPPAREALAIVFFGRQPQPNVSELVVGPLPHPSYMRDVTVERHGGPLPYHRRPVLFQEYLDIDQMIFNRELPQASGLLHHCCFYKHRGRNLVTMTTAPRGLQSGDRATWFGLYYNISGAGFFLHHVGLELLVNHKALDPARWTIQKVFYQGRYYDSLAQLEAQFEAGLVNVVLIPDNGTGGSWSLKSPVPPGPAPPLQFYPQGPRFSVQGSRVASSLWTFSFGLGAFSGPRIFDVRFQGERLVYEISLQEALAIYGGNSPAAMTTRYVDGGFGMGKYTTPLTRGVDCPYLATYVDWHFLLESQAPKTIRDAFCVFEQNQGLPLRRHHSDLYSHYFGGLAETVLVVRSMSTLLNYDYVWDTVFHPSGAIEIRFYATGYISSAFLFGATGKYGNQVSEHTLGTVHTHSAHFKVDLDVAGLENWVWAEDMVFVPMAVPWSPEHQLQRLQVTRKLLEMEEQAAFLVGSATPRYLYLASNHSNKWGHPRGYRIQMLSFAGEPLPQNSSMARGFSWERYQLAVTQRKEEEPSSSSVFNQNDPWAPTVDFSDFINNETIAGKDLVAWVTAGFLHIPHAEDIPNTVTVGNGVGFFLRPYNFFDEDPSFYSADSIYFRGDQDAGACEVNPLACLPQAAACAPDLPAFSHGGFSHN
Format: biochemical
Description: as §1
An IC50 of under 10000 nM was found for `NC/C=C(\Cl)Cc1cc(F)cc(F)c1` [(Z)-3-Chloro-4-(3,5-difluorophenyl)but-2-en-1-amine hydrochloride, reference compound] in this work. An IC50 of under 10000 nM was found for `NC/C=C(\Cl)CCc1ccccc1` [(Z)-3-Chloro-5-phenylpent-2-en-1-amine hydrochloride, reference compound] in this work. An IC50 of under 1000 nM was found for `NC/C=C(/F)COc1ccc(Cl)cc1Cl` [(E)-4-(2,4-Dichlorophenoxy)-3-fluorobut-2-en-1-amine hydrochloride] in this work. An IC50 of under 1000 nM was found for `NC/C=C(/F)COc1ccccc1` [(E)-3-fluoro-4-phenoxybut-2-en-1-amine hydrochloride] in this work. An IC50 of under 1000 nM was found for `NC/C=C(/F)COc1ccc(S(=O)(=O)N2CCOCC2)cc1` [(E)-3-Fluoro-4-(4-(morpholinosulfonyl)phenoxy)but-2-en-1-amine hydrochloride] in this work. An IC50 of under 1000 nM was found for `NC/C=C(/F)COc1cccc(C(F)(F)F)c1` [(E)-3-Fluoro-4-(3-(trifluoromethyl)phenoxy)but-2-en-1-amine hydrochloride] in this work. An IC50 of under 1000 nM was found for `NC/C=C(/F)COc1ccc(C(=O)NCc2ccccc2)cc1` [(E)-4-(4-Amino-2-fluorobut-2-enyloxy)-N-benzylbenzamide hydrochloride] in this work.
